Data as given in publication PMC8901636, “Preclinical studies of Flonoltinib Maleate, a novel JAK2/FLT3 inhibitor, in treatment of JAK2^V617F-induced myeloproliferative neoplasms” (Blood Cancer Journal, 2022).
Where two headings read alike, the source gives them in different places.

How the values were obtained:
JAK2/JAK2 signaling = experiment: Cytokine-stimulated cell-based assay, GM-CSF-induced p-STAT5; conditions: western blotting
Ba/F3-JAK2^WT = experiment: MTT assay for cell proliferation; format: cell-based, Murine; conditions: Mus musculus, 72 h, read-out: IC50(μM) ± SD, tumor cell proliferation
Experimental: (§2) For in vitro inhibition assays, cells were seeded in 96-well culture plates with a density of 15,000–20,000 cells/well after the cells reached 70–90% confluence. […] MTT (3-(4, 5-dimethylthiazol-2-yl)-2, 5-diphenyltetrazolium bromide) (Cat. No. 1334GR001; BioFroxx) assay was conducted in order to examine viability. The IC50 values were fitted using GraphPad Prism 7.0.

FLT3 = FLT3 (Homo sapiens, UniProt P36888); experiment: In vitro kinase assay
Bioavailability [1] = conditions: rat, in vivo; rats; data not shown
Ba/F3-FLT3-ITD^D835V = experiment: MTT assay for cell proliferation; format: cell-based, Murine; conditions: Mus musculus, 72 h, read-out: IC50(μM) ± SD, tumor cell proliferation
Experimental: as §2

[2] = system: Ba/F3-EPOR-JAK2^V617F cells; experiment: PD study after repeated administration in Ba/F3-EPOR-JAK2^V617F tumor-bearing mice; format: in vivo
Experimental: For Ba/F3-EPOR-JAK2^V617F driven malignant model after repeated administration, tumor-bearing mice were randomly divided into 8 groups on the 10th day. Mice were sacrificed at 0, 0.25, 0.5, 1, 4, 8, 12, and 24 hours after the last oral administration, and tissue samples were harvested to determine the distribution of FM and PK parameters by UFLC-MS/MS. For PD studies, we weighed the spleen, and analyzed the ratio of GFP^+ in the spleen and PB by flow cytometry, and test the downstream pathway protein p-STAT5 (Y694, Cat. No. Ab32364) via Western Blot.
With the decrease of drug concentration, the level of p-STAT5 increased to a certain extent, but 12 hours after administration, the level of p-STAT5 still decreased (Fig. 5C). […] 71 ± 7. 91%, respectively. In addition, the weight of spleen was 267.2 ± 56.8 mg in the untreated group and 167.5 ± 52.9 mg in the repeated administration groups (12 hours after the last administration) (Fig. 5D and Fig. S4E).

Ba/F3-JAK2^V617F cells = experiment: Ba/F3-JAK2^V617F disease model; conditions: for inhibition of the spleen growth: 22 days, figure prints it with a minus sign over Spleen Weight (mg); for median survival: vehicle 25 days
[3] = system: FLT3 mutant tumor cell lines; experiment: MTT assay for cell proliferation, summary of panel; format: cell-based; conditions: summary of Table S7
Experimental: (§1) For in vitro inhibition assays, cells were seeded in 96-well culture plates with a density of 15,000–20,000 cells/well after the cells reached 70–90% confluence. After overnight incubation, the cells received a supplement of serial concentrations of FM and underwent 72 h incubation at 37 °C under 5% CO2. MTT (3-(4, 5-dimethylthiazol-2-yl)-2, 5-diphenyltetrazolium bromide) (Cat. No. 1334GR001; BioFroxx) assay was conducted in order to examine viability. The IC50 values were fitted using GraphPad Prism 7.0.

[4] = system: JAK2^V617F mutant cell lines; experiment: MTT assay for cell proliferation, summary of panel; format: cell-based; conditions: summary of Table S7; read-out: anti-proliferative IC50 on JAK2^V617F mutant cell lines
Experimental: as §1

Bioavailability [5] = conditions: dog, in vivo; dogs; data not shown
JAK1/JAK2 = experiment: Cytokine-stimulated cell-based assay, IFN-γ-induced p-STAT1 in U2OS cells; conditions: Homo sapiens
[6] = system: normal human CD34^+ cells; experiment: Normal human CD34+ cells from PB mononuclear cells of healthy donors; format: cell-based; conditions: 48 h
Experimental: To further understand the effect of FM on normal mice and normal human CD34^+ cells, we conducted a further analysis on CD34^+ cells. For normal mice, we measured the proportion of CD34^+ in the peripheral blood of BALB/c mice on Day 0, and then mice were treated with FM 30 mg/kg p.o. twice a day. […] To investigate the effect of FM on normal human CD34^+ cells, we collected mononuclear cells of PB acquired from healthy donors. […] Therefore, in the future phase I clinical trials, we should examine the myelosuppressive effects of FM in patients with MPN.
(A) Normal BALB/c mice were treated with vehicle and FM 30mg/kg p.o. twice a day. FACS analysis of the percentage of CD34^+ cells on Day 0, 7, 14 and 21 (n = 7). (B) Mononuclear cells were isolated from the PB of healthy donors and CD34^+ cells were analyzed after incubated with FM after 48h.

Ba/F3-EPOR = experiment: MTT assay for cell proliferation; format: cell-based, Murine; conditions: Mus musculus, 72 h, read-out: IC50(μM) ± SD, tumor cell proliferation
Experimental: as §2

[7] = PK and tissue distribution after single oral administration in Ba/F3-EPOR-JAK2^V617F tumor-bearing mice; format: in vivo; conditions: for Kp: spleen and plasma, po
[8] = before the last administration, 30 mg/kg repeated
[9] = BALB/c nude, mouse, brain, oral, 30 mg/kg, single, read-out: FM concentration, Brain
[10] = BALB/c nude, mouse, heart, oral, 30 mg/kg, single, read-out: FM concentration, Heart
[11] = BALB/c nude, mouse, intestine, oral, 30 mg/kg, single, read-out: FM concentration, Intestine
[12] = BALB/c nude, mouse, kidney, oral, 30 mg/kg, single, read-out: FM concentration, Kidney
[13] = BALB/c nude, mouse, liver, oral, 30 mg/kg, single, read-out: FM concentration, Liver
[14] = BALB/c nude, mouse, lung, oral, 30 mg/kg, single, read-out: FM concentration, Lung
[15] = BALB/c nude, mouse, muscle, oral, 30 mg/kg, single, read-out: FM concentration, Muscle
[16] = BALB/c nude, mouse, plasma, oral, 30 mg/kg, single, read-out: FM concentration, Plasma
[17] = BALB/c nude, mouse, spleen, oral, 30 mg/kg, single, read-out: FM concentration, Spleen
[18] = BALB/c nude, mouse, stomach, oral, 30 mg/kg, single, read-out: FM concentration, Stomach
[19] = BALB/c nude, mouse, Plasma, single oral 30 mg/kg
[20] = BALB/c nude, mouse, spleen, single oral 30 mg/kg

Sequence of FLT3 (P36888 27-993): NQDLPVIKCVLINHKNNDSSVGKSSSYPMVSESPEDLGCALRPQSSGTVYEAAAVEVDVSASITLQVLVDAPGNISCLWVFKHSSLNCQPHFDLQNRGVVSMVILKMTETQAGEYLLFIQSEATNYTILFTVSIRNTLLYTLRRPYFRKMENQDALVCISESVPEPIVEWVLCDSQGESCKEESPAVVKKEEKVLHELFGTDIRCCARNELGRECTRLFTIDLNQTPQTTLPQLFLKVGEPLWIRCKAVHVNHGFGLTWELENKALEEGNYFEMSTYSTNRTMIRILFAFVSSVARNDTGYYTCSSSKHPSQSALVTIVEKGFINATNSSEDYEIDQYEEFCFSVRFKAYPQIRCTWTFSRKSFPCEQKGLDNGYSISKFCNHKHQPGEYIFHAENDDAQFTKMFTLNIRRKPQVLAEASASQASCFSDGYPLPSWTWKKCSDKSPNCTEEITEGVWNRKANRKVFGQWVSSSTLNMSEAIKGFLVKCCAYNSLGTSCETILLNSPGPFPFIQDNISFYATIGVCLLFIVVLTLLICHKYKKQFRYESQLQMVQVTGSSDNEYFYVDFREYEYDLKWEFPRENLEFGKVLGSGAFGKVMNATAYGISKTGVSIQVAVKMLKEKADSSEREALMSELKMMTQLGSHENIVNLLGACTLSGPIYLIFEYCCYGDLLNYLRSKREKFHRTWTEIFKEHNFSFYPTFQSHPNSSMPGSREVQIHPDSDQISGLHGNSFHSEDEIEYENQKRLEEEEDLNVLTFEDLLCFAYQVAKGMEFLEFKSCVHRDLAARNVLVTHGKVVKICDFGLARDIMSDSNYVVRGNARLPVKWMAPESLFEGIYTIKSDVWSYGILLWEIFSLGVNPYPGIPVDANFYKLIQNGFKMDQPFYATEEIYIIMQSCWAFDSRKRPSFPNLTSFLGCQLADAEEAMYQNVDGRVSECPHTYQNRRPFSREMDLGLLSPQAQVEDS

Cc1cnc(Nc2ccc(N3CCC(N(C)CCO)CC3)c(F)c2)nc1-c1cnn(C(C)C)c1 [FM, 2-((1-(2-fluoro-4-((4-(1-isopropyl-1H-pyrazol-4-yl)-5-methylpyrimidin-2-yl)amino)phenyl)piperidin-4-yl)(methyl)amino)ethan-1-ol]
IC50 (JAK2/JAK2 signaling): 120 nM | IC50 (Ba/F3-JAK2^WT): 0.39 ± 0.2 µM | IC50 (FLT3): 15 nM | bioavailability (Bioavailability [1]): ~60% | IC50 (Ba/F3-FLT3-ITD^D835V): 0.1 ± 0.06 µM | GFP^+ tumor cells in PB ([2]; 12 hours after the 17th administration, 30 mg/kg): 11.77 ± 5.5% | GFP^+ tumor cells in PB [2, 8]: 19.75 ± 12.93% | GFP^+ tumor cells in spleen [2, 8]: 17.12 ± 8.15% | weight of spleen ([2]; repeated administration, 12 hours after the last administration, untreated 267.2 ± 56.8 mg): 167.5 ± 52.9 mg | p-STAT5 level down-regulated by ([2]; spleen, 8 hours after administration, 30 mg/kg repeated): 43.80 ± 1.59% | inhibition of the spleen growth (Ba/F3-JAK2^V617F cells; 15 mg/kg bid p.o.): 72.56% | median survival (Ba/F3-JAK2^V617F cells; 15 mg/kg bid p.o.): 30 days | inhibition of the spleen growth (Ba/F3-JAK2^V617F cells; 30 mg/kg bid p.o.): 97.92% | median survival (Ba/F3-JAK2^V617F cells; 30 mg/kg bid p.o.): 31 days | body weight during treatment (Ba/F3-JAK2^V617F cells; any dose): no obvious body weight decrease | IC50 [3]: < 100 nM | IC50 [4]: < 500 nM | bioavailability (Bioavailability [5]): ~60% | IC50 (JAK1/JAK2): 390 nM | effect on normal human CD34^+ cells [6]: general inhibitory effect | IC50 (Ba/F3-EPOR): 0.55 ± 0.13 µM | drug concentration in the spleen ([7]; 8 h after single oral 30 mg/kg, by calculation): 2416 ± 1657 nmol/kg | concentration at 0.5 h [7, 9]: 354 ± 77.1 ng/g | concentration at 2 h [7, 9]: 309 ± 40.5 ng/g | concentration at 4 h [7, 9]: 157 ± 58.3 ng/g | concentration at 8 h ([7]; BALB/c nude, mouse, brain, oral, 30 mg/kg, single, 8 h, read-out: FM concentration, Brain): 38.4 ± 28.5 ng/g | concentration at 0.5 h [7, 10]: 3390 ± 184 ng/g | concentration at 2 h [7, 10]: 1650 ± 381 ng/g | concentration at 4 h [7, 10]: 864 ± 418 ng/g | concentration at 8 h ([7]; BALB/c nude, mouse, heart, oral, 30 mg/kg, single, 8 h, read-out: FM concentration, Heart): 199 ± 145 ng/g | concentration at 0.5 h [7, 11]: 14900 ± 11400 ng/g | concentration at 2 h [7, 11]: 6250 ± 3230 ng/g | concentration at 4 h [7, 11]: 8490 ± 2240 ng/g | concentration at 8 h ([7]; BALB/c nude, mouse, intestine, oral, 30 mg/kg, single, 8 h, read-out: FM concentration, Intestine): 4360 ± 4050 ng/g | concentration at 0.5 h [7, 12]: 12100 ± 1260 ng/g | concentration at 2 h [7, 12]: 6220 ± 855 ng/g | concentration at 4 h [7, 12]: 2410 ± 1010 ng/g | concentration at 8 h ([7]; BALB/c nude, mouse, kidney, oral, 30 mg/kg, single, 8 h, read-out: FM concentration, Kidney): 1050 ± 767 ng/g | concentration at 0.5 h [7, 13]: 12800 ± 3700 ng/g | concentration at 2 h [7, 13]: 6530 ± 2920 ng/g | concentration at 4 h [7, 13]: 3820 ± 1480 ng/g | concentration at 8 h ([7]; BALB/c nude, mouse, liver, oral, 30 mg/kg, single, 8 h, read-out: FM concentration, Liver): 845 ± 662 ng/g | concentration at 0.5 h [7, 14]: 11600 ± 2960 ng/g | concentration at 2 h [7, 14]: 3820 ± 739 ng/g | concentration at 8 h ([7]; BALB/c nude, mouse, lung, oral, 30 mg/kg, single, 8 h, read-out: FM concentration, Lung): 603 ± 481 ng/g | concentration at 0.5 h [7, 15]: 633 ± 619 ng/g | concentration at 2 h [7, 15]: 217 ± 116 ng/g | concentration at 4 h [7, 15]: 152 ± 73.9 ng/g | concentration at 8 h ([7]; BALB/c nude, mouse, muscle, oral, 30 mg/kg, single, 8 h, read-out: FM concentration, Muscle): 43.1 ± 42 ng/g | concentration at 0.25 h [7, 16]: 653 ± 108 ng/mL | concentration at 0.5 h [7, 16]: 857 ± 74.5 ng/mL | concentration at 1 h [7, 16]: 922 ± 302 ng/mL | concentration at 2 h [7, 16]: 458 ± 88.2 ng/mL | concentration at 4 h [7, 16]: 248 ± 80.8 ng/mL | concentration at 8 h ([7]; BALB/c nude, mouse, plasma, oral, 30 mg/kg, single, 8 h, read-out: FM concentration, Plasma): 59.9 ± 50 ng/mL | concentration at 12 h ([7]; BALB/c nude, mouse, plasma, oral, 30 mg/kg, single, 12 h, read-out: FM concentration, Plasma): 61.4 ± 64.3 ng/mL | Kp ([7]; BALB/c nude, mouse, 30 mg/kg, AUC(0-24h) of spleen higher than that of plasma, single oral 30 mg/kg): 15.3 | Kp ([7]; BALB/c nude, mouse, 30 mg/kg, single oral 30 mg/kg, read-out: Cmax of spleen higher than that of plasma): 11.7 | concentration at 0.25 h [7, 17]: 5630 ± 710 ng/g | concentration at 0.5 h [7, 17]: 10400 ± 2660 ng/g | concentration at 1 h [7, 17]: 9930 ± 3970 ng/g | concentration at 2 h [7, 17]: 8530 ± 1510 ng/g | concentration at 4 h [7, 17]: 3810 ± 1880 ng/g | concentration at 8 h ([7]; BALB/c nude, mouse, spleen, oral, 30 mg/kg, single, 8 h, read-out: FM concentration, Spleen): 1410 ± 968 ng/g | concentration at 12 h ([7]; BALB/c nude, mouse, spleen, oral, 30 mg/kg, single, 12 h, read-out: FM concentration, Spleen): 358 ± 228 ng/g | concentration at 24 h ([7]; BALB/c nude, mouse, spleen, oral, 30 mg/kg, single, 24 h, read-out: FM concentration, Spleen): 32.6 ± 13.3 ng/g | concentration at 8 h ([7]; BALB/c nude, mouse, spleen, 8 h after single oral 30 mg/kg, converted, read-out: drug concentration in the spleen): ~2420 nM | concentration at 12 h ([7]; BALB/c nude, mouse, spleen, 12 h after single oral 30 mg/kg, converted, read-out: concentration of FM in spleen): ~614 nM | concentration at 0.5 h [7, 18]: 30300 ± 18400 ng/g | concentration at 2 h [7, 18]: 30500 ± 29000 ng/g | concentration at 4 h [7, 18]: 17700 ± 10900 ng/g | concentration at 8 h ([7]; BALB/c nude, mouse, stomach, oral, 30 mg/kg, single, 8 h, read-out: FM concentration, Stomach): 6840 ± 10500 ng/g | AUC(0-t) [7, 19]: 2990 ± 558 ng·h/mL | Cmax [7, 19]: 1030 ± 174 ng/mL | half-life [7, 19]: 2.31 ± 0.79 h | Cmax [7, 20]: 12000 ± 3470 ng/g | half-life [7, 20]: 2.71 ± 0.51 h | Cl ([7]; Plasma, single oral 30 mg/kg): 168.7 ± 36.2 mL/min/kg | Vdss ([7]; Plasma, single oral 30 mg/kg): 32.84 ± 10.12 L/kg
